Laboratory results as given in the supplement of paper PMC10307832.

compound: CC(C)(C)c1nc(-c2cccc(NS(=O)(=O)c3c(F)cccc3F)c2F)c(-c2ccnc(N)n2)s1 [Dabrafenib] + Cc1nc(Nc2ncc(C(=O)Nc3c(C)cccc3Cl)s2)cc(N2CCN(CCO)CC2)n1 [Dasatinib] (partner 0.075 µM); assay: relative viability (nuclei count vs DMSO), 5 days (fraction); higher = more cells survive; conditions: first compound 0.003 µM
Method in brief: (§1)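 Five library-drug doses in √10 steps were combined with a fixed anchor-drug dose, or a single drug was given alone, by pin tool to lung cancer cell lines in 1536-well plates the day after seeding. Nuclei were stained and counted after 5 days. Relative viability is the nuclei count in treated wells over that in vehicle wells, taken as the median of duplicate plates.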

| Cell Line | relative viability |
| --- | --- |
| NCI-H1651 | 0.355 |
| NCI-H1755 | 0.419 |
| HOP-62 | 0.509 |
| PC-14 | 0.276 |
| NCI-H1650 | 0.263 |
| ChaGo-K-1 | 0.477 |
| NCI-H1563 | 0.408 |
| HCC-366 | 0.197 |

same assay, conditions: first compound 0.009487 µM

| Cell Line | relative viability |
| --- | --- |
| ABC-1 | 0.531 |
| CAL-12T | 0.434 |
| NCI-H1944 | 0.24 |
| NCI-H2085 | 0.28 |
| NCI-H2228 | 0.482 |
| NCI-H441 | 0.623 |
| NCI-H522 | 0.862 |
| EMC-BAC-2 | 0.319 |
| NCI-H2170 | 0.483 |
| UMC-11 | 0.462 |
| NCI-H650 | 0.332 |
| LCLC-103H | 0.526 |
| NCI-H596 | 0.624 |
| HCC-827 | 0.384 |
| COR-L 105 | 0.39 |
| NCI-H2126 | 0.642 |
| NCI-H647 | 0.161 |
| LOU-NH91 | 0.573 |
| HCC-78 | 0.492 |
| NCI-H1651 | 0.411 |
| NCI-H1755 | 0.38 |
| HOP-62 | 0.738 |
| PC-14 | 0.297 |
| NCI-H1650 | 0.376 |
| ChaGo-K-1 | 0.487 |
| A-427 | 0.77 |
| NCI-H1792 | 0.839 |
| NCI-H1563 | 0.46 |
| HCC-366 | 0.692 |
| NCI-H1623 | 0.521 |

same assay, conditions: first compound 0.03 µM

| Cell Line | relative viability |
| --- | --- |
| CAL-12T | 0.476 |
| NCI-H1944 | 0.236 |
| NCI-H2085 | 0.216 |
| NCI-H2228 | 0.635 |
| NCI-H441 | 0.689 |
| NCI-H522 | 0.671 |
| EMC-BAC-2 | 0.317 |
| NCI-H2170 | 0.53 |
| UMC-11 | 0.41 |
| NCI-H650 | 0.402 |
| LCLC-103H | 0.513 |
| NCI-H596 | 0.742 |
| HCC-827 | 0.287 |
| COR-L 105 | 0.366 |
| NCI-H2126 | 0.681 |
| NCI-H647 | 0.305 |
| LOU-NH91 | 0.582 |
| HCC-78 | 0.483 |
| NCI-H1651 | 0.373 |
| NCI-H1755 | 0.405 |
| HOP-62 | 0.588 |
| PC-14 | 0.271 |
| NCI-H1650 | 0.425 |
| ChaGo-K-1 | 0.56 |
| A-427 | 0.594 |
| NCI-H1792 | 0.892 |
| NCI-H1563 | 0.459 |
| HCC-366 | 0.68 |
| NCI-H1623 | 0.585 |

same assay, conditions: first compound 0.09487 µM

| Cell Line | relative viability |
| --- | --- |
| ABC-1 | 0.58 |
| CAL-12T | 0.325 |
| NCI-H1944 | 0.244 |
| NCI-H2085 | 0.288 |
| NCI-H2228 | 0.506 |
| NCI-H441 | 0.55 |
| NCI-H522 | 0.83 |
| EMC-BAC-2 | 0.246 |
| NCI-H2170 | 0.618 |
| UMC-11 | 0.446 |
| NCI-H650 | 0.314 |
| LCLC-103H | 0.447 |
| NCI-H596 | 0.544 |
| COR-L 105 | 0.373 |
| NCI-H2126 | 0.713 |
| NCI-H647 | 0.188 |
| LOU-NH91 | 0.49 |
| HCC-78 | 0.251 |
| NCI-H1651 | 0.442 |
| NCI-H1755 | 0.403 |
| HOP-62 | 0.603 |
| PC-14 | 0.251 |
| NCI-H1650 | 0.327 |
| ChaGo-K-1 | 0.586 |
| A-427 | 0.51 |
| NCI-H1792 | 0.857 |
| NCI-H1563 | 0.461 |
| HCC-366 | 0.627 |
| NCI-H1623 | 0.611 |

same assay, conditions: first compound 0.3 µM

| Cell Line | relative viability |
| --- | --- |
| ABC-1 | 0.799 |
| CAL-12T | 0.42 |
| NCI-H1944 | 0.178 |
| NCI-H2085 | 0.188 |
| NCI-H2228 | 0.506 |
| NCI-H441 | 0.456 |
| NCI-H522 | 0.899 |
| EMC-BAC-2 | 0.295 |
| NCI-H2170 | 0.544 |
| UMC-11 | 0.501 |
| NCI-H650 | 0.294 |
| LCLC-103H | 0.379 |
| NCI-H596 | 0.646 |
| HCC-827 | 0.382 |
| COR-L 105 | 0.368 |
| NCI-H2126 | 0.69 |
| NCI-H647 | 0.159 |
| LOU-NH91 | 0.568 |
| HCC-78 | 0.408 |
| NCI-H1651 | 0.435 |
| NCI-H1755 | 0.337 |
| HOP-62 | 0.539 |
| PC-14 | 0.281 |
| NCI-H1650 | 0.378 |
| ChaGo-K-1 | 0.559 |
| A-427 | 0.627 |
| NCI-H1792 | 0.905 |
| NCI-H1563 | 0.456 |
| HCC-366 | 0.584 |
| NCI-H1623 | 0.619 |

compound: CC(C)(C)c1nc(-c2cccc(NS(=O)(=O)c3c(F)cccc3F)c2F)c(-c2ccnc(N)n2)s1 [Dabrafenib] + O=C(CCCCCCC(=O)Nc1ccccc1)NO [Vorinostat] (partner 1 µM); assay: as above; conditions: first compound 0.003 µM
Method in brief: as §1

| Cell Line | relative viability |
| --- | --- |
| CAL-12T | 1.06 |
| NCI-H1944 | 0.445 |
| NCI-H2085 | 0.669 |
| NCI-H2228 | 0.501 |
| NCI-H2170 | 0.777 |
| UMC-11 | 0.379 |
